The results in this text go back to patent publication US20090291934A1, “Method for decomposing an allergen” (Shinshu TLO Co., Ltd., priority 2003, published 2009).

Series [1] relates to guinea pig skin. The experiment in a line: Toxicity experiment with rays in guinea pig (Morikawa et al. method). It is filed as in vivo, guinea pig (Crj; Hartley). The settings on record: 0.03 mL of 0.05% 8-methoxypsoralen, UV, all spread parts. The method, then:
In the comparative group of the medium, the clipped backs of the guinea pigs were open spread by 0.03 mL of dimethylsulfoxide.
As the positive comparative group, the clipped backs of the guinea pigs were open spread by 0.03 mL of 0.05% 8-methoxypsoralen. After 30 minutes, they were exposed to ultraviolet rays (about 11.2 Joules/cm^2). The reactions on the skins were evaluated at 24 and 48 hours after exposing to rays.

Series [2] concerns fibroblasts derived from Chinese hamster lung (CHL/IU cell). Description: Experiment on chromosome aberration by using mammalian cells. It is filed as cell-based. The settings on record: positive comparative group, short time. The method, then: The experiment on chromosome aberration was examined as follows. The experiment doses of the test material were determined by the inhibition experiment of increasing cells. As a result of the inhibition experiment of increasing cells, the concentration of test material in 50% inhibition experiment of increasing cells was 5.0 mg/mL or more in −S9mix method treating in a short time. And the concentration thereof was 0.840 mg/mL in +S9mix method treating in a short time.
As the negative comparative, the non-treating group and the comparative group of the medium were prepared, and as the positive comparative, the mitomycin C (0.05 μg/mL)-treating group was prepared.
Under this experiment, colcemid (available from GIBCO/Lot No. 1125546) was added to laboratory dishes for chromosome specimens to the last concentration of 0.2 μg/mL at 2 hours before making specimens so that cell divisions were stopped in the middle of the division period. After 2 hours, the culture solutions in the laboratory dishes were moved into a conical bottom tube. […] Furthermore, the laboratory dishes prepared for the cell increasing rate were fixed and stained in the same method as the inhibition experiment of increasing cells described above, and the cell increasing rate was measured. […]

The subject of series [3] is guinea pig skin. The following applies: sensitized with 0.1% DNCB, induced by 0.1% DNCB, 48 hours after inducing.
Series [4] concerns guinea pig skin. Description: Sensitization experiment with rays in guinea pig skin (Adjuvant and Strip method). The series is classed as in vivo, guinea pig (Crj; Hartley). The settings on record: sensitized with 5% 6-MC. The method, then: The procedures were repeated for 5 days and the guinea pigs were sensitized with rays.
In the comparative group of the medium, the guinea pigs were injected with to sensitize and induced by dimethylsulfoxide. […] As the positive comparative group, the guinea pigs were injected with 5% 6-methylcoumarin (6-MC) to sensitize, and induced by 1% 6-MC.

Series [5] has as its target T1, Tick antigen Derf II (Dermatophagoides farinae, UniProt Q00855).
T1 construct: purchased ASAHI BREWERIES, LTD
T1 sequence (Q00855 18-146): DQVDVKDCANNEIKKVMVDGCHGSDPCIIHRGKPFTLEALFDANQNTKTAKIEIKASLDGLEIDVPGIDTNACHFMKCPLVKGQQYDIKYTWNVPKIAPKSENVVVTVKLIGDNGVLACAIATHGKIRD
The experiment in a line: Two-dimensional electrophoresis of tick allergen with and without Fe-Pc-COOK. It is filed as biochemical. The following applies: Derf II sol. with 0.1 or 0.5 w/v % Fe-Pc-COOK (A) vs tick allergen only (B), silver stain. An excerpt: Tick antigen Derf II (available from ASAHI BREWERIES, LTD.) was chosen between the allergens, and we compared electrophoresis of the tick allergen containing iron phthalocyanine tetracarboxylic acid with that of the allergen only.
Iron phthalocyanine tetracarboxylic acid potassium salt (Fe-Pc-COOK) aqueous solution and Derf II solution, which appropriate concentrations (w/v %) were mentioned in Table 4, were mixed with swelling stock solution containing IPG (Immobilized pH Gradient) buffer (8 mol/L Urea, 2 w/v % CHAPS, 2% IPG Buffer, appropriate amount of Bromophenol blue, and distilled water) to prepare experimental solutions of preparing examples 1-4 in Table 4.
Whereas Derf II solution was mixed with swelling stock solution containing IPG buffer to prepare experimental solutions of comparative preparing examples 1-4 in Table 4.
One-dimensional electrophoresis gel films (Strip) of Strip pH4-7 and Strip pH 3-10.5 were prepared, soaked in each experimental solution containing appropriate amount of silicon oil for preventing dry, and treated for 10 hours. After being pulled up and washed, each Strip was subjected to one-dimensional electrophoresis containing silicon oil for preventing dry for 16 hours. […]

Series [6] concerns rats. The experiment in a line: Toxicity experiment by oral injection of solution dissolving the decomposer to rats (for once). The method, then: They were divided into each group according to their body weights measured before housed by a continuous stratified sampling method. Extra rats caused by the method were excluded from the experiment and euthanized.
Following the medical toxicity test guideline, the amount of injection was determined 2000 mg/kg, technical upper limit of oral injection. A comparative group, which a comparative material of purified water in the Japanese Pharmacopoeia was injected, was also prepared. 10 male rats and 10 female rats were divided into two groups respectively.
Their health conditions and life or death were observed continuously before the injection of the solution, at 5, 15, 30 minutes, 1, 2, and 4 hours after the injection, and once a day as from the following day. They were weighed before the injection of the solution, and at 9:00-12:00 on 1, 3, 7, 10, 14th day after the injection. After all the observations, their organs and tissues in heads, chests and abdomens were researched whether normal or not.

Series [7] deals with rabbit eye mucosa. The experiment in a line: Irritation experiment on rabbit eye mucosa. The series is classed as in vivo, rabbit (Japanese White). The following applies: for irritation on the rabbit eye mucosa (Kay and Calandra classification): 100 mg powder. The method, then: Male rabbits at the age of 10 weeks (Japanese White, Kb1:JW(SPF)) were prepared for a washed group (n=3) and a non-washed group (n=3). After pre-bred for 7 days, the rabbits were confirmed normality about changes of body weight and health condition. On the preceding day, they were confirmed about normality of eyes macroscopically and no injury of cornea by fluoresceine staining (fluor-paper, Lot No. 3990849 available from Wyeth-Ayerest Laboratories, USA) using slitlamp (type SL-5: available from Kowa Company, Ltd.) to prepare for experiment.
100 mg of iron phthalocyanine tetracarboxylic acid powder, which was screened through a mesh having 300 μm of aperture once, was put into right conjunctiva of each rabbit, and upper and lower eyelids were gently kept closed for about one second. In the washed group, to remove powder, the conjunctiva was washed with 230-330 mL of lukewarm water at 30 seconds after putting to remove the powder. The left conjunctiva of each rabbit wasn't treated in both groups. The cornea, iris and the conjunctiva in both groups were compared with non-treated eye as reference at 1, 24, 48 and 72 hours after putting. […] The observation results were scored following Draize scoring criteria (Appendix 3), and the irritation was evaluated following Kay and Calandra classification (Appendix 4).

For `COc1c2occc2cc2ccc(=O)oc12` [8-methoxypsoralen], the skin action score in series [1] is on record as 4.

Consider `CN(C)N=O` [DMN], for which, in series [2] (+S9mix method), the “appearance frequency of cells whose chromosomes were abnormal structurally” value is listed as 37.5%.

Consider `O=[N+]([O-])c1ccc(Cl)c([N+](=O)[O-])c1` [DNCB, 2,4-dinitrochlorobenzene], for which the positive rate in series [3] was determined as 100%.

For the compound `Cc1ccc2oc(=O)ccc2c1` [Example 6-MC, 6-methylcoumarin], the erythema score in series [4] (induced by 1% 6-MC and exposed to ultraviolet rays) is given as 2-4. Also, the “evaluation of sensitization with rays” value in series [4] (induced by 1% 6-MC, all guinea pigs) was “positive”.

In the case of `CO[C@@]12[C@H](COC(N)=O)C3=C(C(=O)C(C)=C(N)C3=O)N1C[C@@H]1N[C@@H]12` [MMC, mitomycin C], the “appearance frequency of cells whose chromosomes were abnormal structurally” value in series [2] (-S9mix method) was found to be 16%.

In the case of “Iron phthalocyanine tetracarboxylic acid potassium salt”, the “effect on tick allergen spots in two-dimensional electrophoresis gel” value in series [5] is on record as “Disappearance of the spots between pH 5-6”.

On to “iron phthalocyanine tetracarboxylic acid”, for which the “death during the experiment” value in series [6] (2000 mg/kg oral once, observed 14 days) was “no male and female rat”. This compound also displayed a minimum lethal dose in series [6] (oral once, male and female rats) of at least 2000 mg/kg. Also, in series [7] (non-washed group), the “irritation on the rabbit eye mucosa (Kay and Calandra classification)” value was “moderately irritating”; the “time by which reaction of the conjunctiva disappeared” value is at most 10 days. Moreover, the “irritation on the rabbit eye mucosa (Kay and Calandra classification)” value in series [7] (washed group (washed 30 seconds after putting)) was “practically nonirritating”. The “time by which reactions of the cornea and the iris disappeared” value in series [7] (non-washed group, after putting) was at most 72 h. Besides, in series [7] (washed group, after putting), the “time by which slight red conjunctiva disappeared” value is at most 24 h.
